From patent US7045532B2 (Millennium Pharmaceuticals, Inc., priority 1999, dated 2006)
pKi: −log10 of the molar value. Where two headings read alike, the source gives them in different places.

Columns and labels:
[1] = molecular target: T1, ACE (Sigma, A2580) (Sus scrofa, UniProt F1RRW5); experiment: ACE enzymatic activity assay; format: biochemical, porcine; details: Ki class, compounds tested in 5% DMSO
T1 construct: ACE from porcine kidney; purchased Sigma A2580; host or cells: porcine kidney
T1 sequence (F1RRW5 34-1309): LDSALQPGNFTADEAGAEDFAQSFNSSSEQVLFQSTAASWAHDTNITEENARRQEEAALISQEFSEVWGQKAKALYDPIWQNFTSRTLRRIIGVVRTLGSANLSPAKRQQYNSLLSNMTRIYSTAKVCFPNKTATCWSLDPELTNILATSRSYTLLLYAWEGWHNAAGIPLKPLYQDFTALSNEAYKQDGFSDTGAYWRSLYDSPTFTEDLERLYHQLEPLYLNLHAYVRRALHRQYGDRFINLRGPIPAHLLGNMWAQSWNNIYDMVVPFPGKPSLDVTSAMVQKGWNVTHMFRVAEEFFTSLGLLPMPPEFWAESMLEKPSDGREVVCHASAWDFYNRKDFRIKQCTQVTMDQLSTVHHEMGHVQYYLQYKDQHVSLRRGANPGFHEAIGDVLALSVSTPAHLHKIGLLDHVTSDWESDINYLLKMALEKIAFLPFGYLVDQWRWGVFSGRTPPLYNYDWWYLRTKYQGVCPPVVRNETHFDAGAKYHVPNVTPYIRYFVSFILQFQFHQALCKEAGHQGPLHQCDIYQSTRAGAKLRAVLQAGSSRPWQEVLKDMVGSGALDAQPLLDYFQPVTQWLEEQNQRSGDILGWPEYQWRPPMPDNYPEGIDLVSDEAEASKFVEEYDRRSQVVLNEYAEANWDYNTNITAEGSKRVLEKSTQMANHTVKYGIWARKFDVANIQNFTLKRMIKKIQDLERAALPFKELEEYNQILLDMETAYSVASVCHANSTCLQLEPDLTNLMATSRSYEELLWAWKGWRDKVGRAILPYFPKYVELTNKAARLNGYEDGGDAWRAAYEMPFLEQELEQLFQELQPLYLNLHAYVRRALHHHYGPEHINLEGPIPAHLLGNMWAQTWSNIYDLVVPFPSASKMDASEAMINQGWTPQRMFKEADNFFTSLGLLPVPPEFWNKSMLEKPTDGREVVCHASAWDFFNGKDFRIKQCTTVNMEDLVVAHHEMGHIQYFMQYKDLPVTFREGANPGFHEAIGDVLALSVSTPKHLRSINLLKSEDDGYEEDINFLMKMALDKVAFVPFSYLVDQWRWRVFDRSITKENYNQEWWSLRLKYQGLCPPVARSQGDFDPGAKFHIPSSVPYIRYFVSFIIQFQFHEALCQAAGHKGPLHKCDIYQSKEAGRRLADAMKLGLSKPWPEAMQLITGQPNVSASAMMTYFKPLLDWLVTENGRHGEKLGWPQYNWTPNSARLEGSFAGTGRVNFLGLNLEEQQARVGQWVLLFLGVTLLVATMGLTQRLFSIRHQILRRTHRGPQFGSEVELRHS
In short: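 Fluorogenic substrate cleavage by 1 nM ACE, read at 320/405 nm after EDTA stop at ~30 min. Reactions at 25 °C, pH 7.5, in HEPES/NaCl/Brij-35 buffer; compounds tested at 12 concentrations in 5% DMSO.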

[2] = molecular target: ACE-2 (Rattus norvegicus, UniProt Q5EGZ1); experiment: ACE-2 Competitive Substrate Assay, rat ACE-2; format: biochemical; details: Ki class, compounds tested in 5% DMSO
Sequence of ACE-2 (Rattus norvegicus, UniProt Q5EGZ1) (Q5EGZ1 18-805): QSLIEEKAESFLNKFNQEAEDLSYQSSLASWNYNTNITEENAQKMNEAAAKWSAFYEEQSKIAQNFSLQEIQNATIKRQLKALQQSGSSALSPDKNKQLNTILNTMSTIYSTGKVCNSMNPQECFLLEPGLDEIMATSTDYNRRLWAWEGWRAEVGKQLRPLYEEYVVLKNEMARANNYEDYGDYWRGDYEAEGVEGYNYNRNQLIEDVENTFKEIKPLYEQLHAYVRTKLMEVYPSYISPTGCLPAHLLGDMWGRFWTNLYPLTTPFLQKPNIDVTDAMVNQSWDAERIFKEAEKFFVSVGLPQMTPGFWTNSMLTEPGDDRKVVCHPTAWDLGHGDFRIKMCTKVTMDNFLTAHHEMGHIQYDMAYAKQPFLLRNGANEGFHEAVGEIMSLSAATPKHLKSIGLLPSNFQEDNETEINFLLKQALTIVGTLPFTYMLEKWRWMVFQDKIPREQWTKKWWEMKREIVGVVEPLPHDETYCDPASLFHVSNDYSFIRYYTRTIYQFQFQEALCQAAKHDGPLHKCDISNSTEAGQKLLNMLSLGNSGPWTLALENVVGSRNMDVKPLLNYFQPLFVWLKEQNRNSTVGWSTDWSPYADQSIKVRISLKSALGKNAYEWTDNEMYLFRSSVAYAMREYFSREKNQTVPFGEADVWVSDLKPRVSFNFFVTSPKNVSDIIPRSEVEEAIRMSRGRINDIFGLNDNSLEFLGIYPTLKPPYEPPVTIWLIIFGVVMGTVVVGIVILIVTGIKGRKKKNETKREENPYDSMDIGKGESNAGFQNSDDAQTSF

[3] = molecular target: T2, ACE-2 (Homo sapiens, UniProt Q9BYF1); experiment: ACE-2 Competitive Substrate Assay (ACS Assay); format: biochemical
T2 construct: a stop codon inserted after the serine immediately preceding the transmembrane domain; made in house; host or cells: CHO K1 cells (transient transfection, purified from conditioned medium)
T2 sequence (Q9BYF1 18-740 limits assumed): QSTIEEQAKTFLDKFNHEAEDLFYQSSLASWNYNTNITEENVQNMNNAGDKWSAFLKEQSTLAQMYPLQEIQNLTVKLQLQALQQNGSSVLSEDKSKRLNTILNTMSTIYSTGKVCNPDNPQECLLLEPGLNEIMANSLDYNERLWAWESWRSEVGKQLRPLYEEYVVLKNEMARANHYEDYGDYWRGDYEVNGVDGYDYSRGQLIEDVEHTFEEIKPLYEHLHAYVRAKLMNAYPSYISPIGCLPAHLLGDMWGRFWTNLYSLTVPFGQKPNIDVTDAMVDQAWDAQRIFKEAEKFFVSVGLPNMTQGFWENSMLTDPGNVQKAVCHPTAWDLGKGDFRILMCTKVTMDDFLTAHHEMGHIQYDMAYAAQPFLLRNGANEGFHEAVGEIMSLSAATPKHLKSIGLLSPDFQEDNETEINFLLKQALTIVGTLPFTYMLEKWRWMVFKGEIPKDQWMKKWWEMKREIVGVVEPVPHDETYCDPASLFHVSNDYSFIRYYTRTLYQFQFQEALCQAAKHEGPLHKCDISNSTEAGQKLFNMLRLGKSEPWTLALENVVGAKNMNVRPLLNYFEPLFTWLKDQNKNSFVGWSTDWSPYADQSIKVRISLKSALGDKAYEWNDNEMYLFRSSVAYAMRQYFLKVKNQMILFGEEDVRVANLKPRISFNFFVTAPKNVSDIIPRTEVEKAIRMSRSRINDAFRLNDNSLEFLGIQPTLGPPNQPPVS

[4] = molecular target: T3, Carboxypeptidase A (Bos taurus, UniProt P00730); experiment: Carboxypeptidase A activity assay; format: biochemical; details: Ki class, compounds tested in 5% DMSO
T3 sequence (P00730 111-419): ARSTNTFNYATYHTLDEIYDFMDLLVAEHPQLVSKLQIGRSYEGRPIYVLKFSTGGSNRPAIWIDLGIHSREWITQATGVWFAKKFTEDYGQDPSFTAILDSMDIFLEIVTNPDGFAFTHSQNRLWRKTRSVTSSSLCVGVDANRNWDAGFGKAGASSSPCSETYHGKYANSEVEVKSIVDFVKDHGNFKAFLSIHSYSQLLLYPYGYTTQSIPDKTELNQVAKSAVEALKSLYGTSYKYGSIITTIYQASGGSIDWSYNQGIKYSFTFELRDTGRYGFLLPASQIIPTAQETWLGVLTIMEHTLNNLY
In short: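 Ki obtained by correcting apparent Ki for substrate, Ki=Kiapp/(1+[S]/Km), from 12-concentration series. Enzyme activity read by absorbance at 328 nm with 5% DMSO present, EDTA stop.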

[5] = Ki class, compounds tested in 5% DMSO, 12 compound concentrations, Ki=Kiapp/(1+[S]/Km), read-out: Human ACE-2 Activity
[6] = Table 3, very good ACE-2 inhibiting compounds, species not given, read-out: ACE-2 Activity, Ki
[7] = Ki class, compounds tested in 5% DMSO, 12 concentrations, read-out: Human ACE-2 Activity

| Compound | pKi ([1]; 12 compound concentrations) | pKi ([2]; 12 compound concentrations) | pKi [3, 5] | pKi [3, 6] | pKi ([4]; 12 compound concentrations) | pKi ([1]; 12 concentrations) | pKi ([2]; 12 concentrations) | pKi [3, 7] | pKi ([4]; 12 concentrations) |
| --- | --- | --- | --- | --- | --- | --- | --- | --- | --- |
| Cc1ccc(Cn2cncc2C[C@H](NC(CC(C)C)C(=O)O)C(=O)O)cc1C (single isomer, unassigned) [HK, 2-[1-Carboxy-2-[3-(3,4-dimethyl-benzyl)-3H-imidazol-4-yl]-ethylamino)4-methyl-pentanoic acid] | 4.30 to 5.00 | > 7.00 | > 7.00 | > 7.30 | 4.30 to 5.00 | – | – | – | – |
| Cc1cc(C)cc(Cn2cncc2C[C@H](NC(CC(C)C)C(=O)O)C(=O)O)c1 (single isomer, unassigned) [HQ, 2-[1-Carboxy-2-[3-(3,5-dimethyl-benzyl)-3H-imidazol-4-yl]-ethylamino]4-methyl-pantanoic acid] | 4.30 to 5.00 | > 7.00 | > 7.00 | > 7.30 | 4.30 to 5.00 | – | – | – | – |
| CC(C)CC(N[C@H](CO)Cc1c[nH]cn1)C(=O)O (single isomer, unassigned) [FO, 2-[1-Hydroxymethyl-2-(1H-imidazol-4-yl)-ethylamino)4-methyl-pentanoic acid] | – | – | – | – | – | < 4.30 | < 6.30 | < 6.30 | < 4.30 |
| CCCCC(N[C@@H](Cc1c[nH]cn1)C(=O)O)C(=O)O (single isomer, unassigned) [ED, 2-[1-Carboxy-2-(1H-imidazol-4-yl)-ethylamino]hexanoic acid] | – | – | – | – | – | < 4.30 | 6.30 to 7.00 | < 6.30 | < 4.30 |
| CCCC(NC(Cc1c[nH]cn1)C(=O)O)C(=O)O (single isomer, unassigned) [DJ, 2-[1-Carboxy-2-(1H-imidazol-4-yl)-ethylamino)pentanoic acid] | – | – | – | – | – | < 4.30 | 6.30 to 7.00 | < 6.30 | < 4.30 |
| Cc1ccc(Cn2cncc2C[C@H](NC(CC(C)C)C(=O)O)C(=O)O)cc1 (single isomer, unassigned) [HG, 2-[1-Carboxy-2-[3-(4-methyl-benzyl)-3H-imidazol-4-yl]-ethylamino)4-methyl-pentanoic acid] | 4.30 to 5.00 | > 7.00 | > 7.00 | > 7.30 | 4.30 to 5.00 | – | – | – | – |
| CC(C)C[C@H](N[C@H](CC(=O)O)C(=O)O)C(=O)O [U, 2-(1-Carboxy-3-methyl-butylamino)-succinic acid] | – | – | – | – | – | < 4.30 | < 6.30 | < 6.30 | < 4.30 |
| CC(C)CC(N[C@H](Cc1cccs1)C(=O)O)C(=O)O (stereo in doubt) [CP, 2-(1-Carboxy-2-thiophen-2-yl-ethylamino)-4-methyl-pentanoic acid] | – | – | – | – | – | < 4.30 | < 6.30 | < 6.30 | 4.30 to 5.00 |
| O=C(O)C[C@H](NC(CCc1ccccc1)C(=O)O)C(=O)O (some centres unmarked) [AZ, 2-(1-Carboxy-3-phenyl-propylamino)-succinicacid] | – | – | – | – | – | < 4.30 | < 6.30 | < 6.30 | < 4.30 |
| CC(C)CC(N[C@H](Cc1cccnc1)C(=O)O)C(=O)O (some centres unmarked) [CC, 2-(1-Carboxy-2-pyridin-3-yl-ethylamino)-4-methyl-pentanoic acid] | – | – | – | – | – | < 4.30 | < 6.30 | < 6.30 | < 4.30 |
| CC(C)CC(CS)C(=O)O (centres unmarked) [DQ, 2-Mercaptomethyl-4-methyl-pentanoic acid] | – | – | – | – | – | < 4.30 | 6.30 to 7.00 | < 6.30 | < 4.30 |
| CC(C)C[C@@H](C(=O)O)N(C(=O)c1ccccc1)C(CCc1ccccc1)C(=O)O (stereo in doubt) [AV, 2-[Benzoyl-(1-carboxy-3-phenyl-propyl)-amino]-4-methyl-pentanoic acid] | – | – | – | – | – | < 4.30 | < 6.30 | < 6.30 | 4.30 to 5.00 |
| CC(N[C@H](Cc1c[nH]cn1)C(=O)O)C(=O)O (some centres unmarked) [BD, 2-(1-carboxy-ethylamino)-3-(1H-imidazol-4-yl)-propionic acid] | – | – | – | – | – | < 4.30 | < 6.30 | < 6.30 | < 4.30 |
| NCCCC[C@H](NC(CCc1ccccc1)C(=O)O)C(=O)O (some centres unmarked) [BU, 6-Amino-2-(1-carboxy-3-phenyl-propylamino)-hexanoic acid] | – | – | – | – | – | < 4.30 | < 6.30 | < 6.30 | < 4.30 |
| CC(C)(C)C[C@H](N[C@H](CCc1ccccc1)C(=O)O)C(=O)O [DD, 2-(1-Carboxy-3-phenyl-propylamino)-4,4-dimethylpentanoic acid] | – | – | – | – | – | < 4.30 | < 6.30 | < 6.30 | < 4.30 |

The remaining lines, values ahead:

| pKi ([1]; 12 compound concentrations) | pKi ([2]; 12 compound concentrations) | pKi [3, 5] | pKi [3, 6] | pKi ([4]; 12 compound concentrations) | pKi ([1]; 12 concentrations) | pKi ([2]; 12 concentrations) | pKi [3, 7] | pKi ([4]; 12 concentrations) | Compound |
| --- | --- | --- | --- | --- | --- | --- | --- | --- | --- |
| – | – | – | – | – | < 4.30 | < 6.30 | < 6.30 | < 4.30 | CC(C)CC(N[C@H](CN(C)c1ccccc1)C(=O)O)C(=O)O (some centres unmarked) [FT, 2-[1-Carboxy-2-(methyl-phenyl-amino)-ethylamino]-4-methyl-pentanoic acid] |
| – | – | – | – | – | < 4.30 | < 6.30 | < 6.30 | < 4.30 | O=C(O)C(Cc1ccc(O)cc1)N[C@@H](Cc1c[nH]cn1)C(=O)O (single isomer, unassigned) [DN, 2-[1-Carboxy-2-(4-hydroxy-phenyl)-ethylamino]-3-(1H-imidazol-4-yl)-propionic acid] |
| – | – | – | – | – | > 5.00 | < 6.30 | < 6.30 | < 4.30 | CC(C)CC(N[C@H](Cc1c[nH]cn1)C(=O)O)C(=O)O (some centres unmarked) [BB, 2-[1-Carboxy-2-(1H-imidazol-4-yl)-ethylamino]4-methyl-pentanoic acid] |
| – | – | – | – | – | < 4.30 | < 6.30 | < 6.30 | < 4.30 | CC(C)[C@H](NC(CCc1ccccc1)C(=O)O)C(=O)O (some centres unmarked) [AS, 2-(1-Carboxy-3-phenyl-propylamino)-3-methyl-butync acid] |
| – | – | – | – | – | < 4.30 | < 6.30 | < 6.30 | < 4.30 | CCCC(N[C@H](CCc1ccccc1)C(=O)O)C(=O)O (stereo in doubt) [BA, 2-(1-Carboxy-3-phenyl-propylamino)-pentanoicacid] |
| – | – | – | – | – | < 4.30 | < 6.30 | < 6.30 | < 4.30 | CC(C)CC(N[C@H](CN(C)Cc1ccccc1)C(=O)O)C(=O)O (stereo in doubt) [FU, 2-[2-(Benzyl-methyl-amino)-1-carboxy-ethylamino]-4-methyl-pentanoic acid] |
| – | – | – | – | – | 4.30 to 5.00 | < 6.30 | < 6.30 | > 5.00 | CC(C)CC(N[C@@H](Cc1cn(Cc2ccccc2)cn1)C(=O)O)C(=O)O (some centres unmarked) [BV, 2-[2-(1-Benzyl-1H-imidazol-4-yl)-1-carboxy-ethylamino]-4-methyl-pentanoic acid] |
| – | – | – | – | – | 4.30 to 5.00 | < 6.30 | < 6.30 | 4.30 to 5.00 | CC(C)CC(N[C@@H](Cc1cncn1Cc1ccc(C(F)(F)F)cc1)C(=O)O)C(=O)O (some centres unmarked) [GJ, 2-[1-Carboxy-2-[3-(4-trifluoromethyl-benzyl)-3H-imidazol-4-yl]-ethylamino]4-methyl-pentanoic acid] |
